Patent US20260144796A1, “Compounds and Methods for Improving Health” (Acurx Pharmaceuticals, Inc., priority 2022, published 2026)
Converted amounts (≈) assume the structure as drawn. Like-named read-outs stand apart in the source and are kept apart here.

Columns and labels:
Clostridioides difficile = assay: MIC determination, C. difficile strains; assay type: cell-based
Description: (§1) Fecal samples homogenized in reduced PBS (0.1 g stool/ml PBS) and serially diluted and plated directly onto YCFA7 agar supplemented with 0.002 g/ml each of glucose, maltose and cellobiose in large (13.5 cm diameter) petri dishes. Isolated colonies were identified by PCR amplification of the full-length 16S rRNA gene (using 7F (5′-[…]-3′) forward primer and 1510R (5′-[…]-3′) reverse primer followed by Sanger sequencing. Full-length 16S rRNA gene sequence reads were aligned using CLC Genomics (Qiagen) using the Ribosomal Database Project (RDP) as reference to classify reads to Operational Taxonomic Units (OTUs). The full-length 16S rRNA gene sequence of each species-level OTU was compared to the Ribosomal Database Project (RDP) reference database to assign taxonomic designations to the genus level and a BLAST search performed to identify any candidate novel species.
(§2) Strains plated onto blood agar (Hardy Diagnostics) with a 24-hour incubation at 37° C. in an anaerobic environment (Coy vinyl anaerobic chamber). After incubation, 3-5 well-isolated colonies were suspended into 5 mL of BHI broth (Criterion Media). The cultures were incubated in an anaerobic chamber for 24 hours to achieve a 0.5 McFarland Standard. Brucella agar with 5% hemin (5 ug/mL) (Sigma), vitamin K (10 ug/mL), and defibrinated sheep blood (Northeast Lab Services). The supplemented brucella agar was then utilized for two-fold serial dilution to create plates with IBZ concentration of 0.5 to 16 μg/mL plates. Plates were allowed to dry in a sterile location. After drying, the plates were covered with foil to prevent any photo-damage to the hemin and placed in the anaerobic chamber for 1 hour to reduce the media. The broth culture was then spotted onto the plates and covered with foil. Plates were allowed to dry completely before inverting them for incubation for 48 hours. Plates were analyzed and MIC recorded.

Flavonifractor plautii = assay: MIC determination, stool Firmicute isolates; assay type: cell-based; settings: N=1
Enterococcus avium = assay: MIC determination, stool Firmicute isolates; assay type: cell-based
Description: as §1, §2

Enterococcus mundtii = assay: MIC determination, stool Firmicute isolates; assay type: cell-based; settings: N=1
Description: as §1, §2

Blautia sp. = assay: MIC determination, stool Firmicute isolates; assay type: cell-based; settings: N=1
Description: as §1, §2

Clostridium subterminale = assay: MIC determination, stool Firmicute isolates; assay type: cell-based; settings: N=1
gut microbiome = assay: Phase 2a CDI clinical trial, gut microbiome (metagenomics); assay type: in vivo, human; settings: CDI patients; for Proportion of isolated Firmicutes, Peptostreptococcaceae: baseline 2%; for Proportion of isolated Firmicutes, Other: baseline 5%; for Proportion of isolated Firmicutes, Ruminococcaceae: baseline 7%; for Proportion of isolated Firmicutes, Streptococcaceae: baseline 13%; for Proportion of isolated Firmicutes, Erysipelotrichaceae: baseline 18%; for Proportion of isolated Firmicutes, Lachnospiraceae: baseline 30%
Description: Phase 2a of this trial was an open label cohort of 10 subjects from study centers in the United States. In this cohort, 10 patients with diarrhea caused by mild or moderate C. difficile diagnosed via toxin EIA+ were treated with ibezapolstat 450 mg orally, twice daily for 10 days. All patients were followed for recurrence for 28±2 days. Stool was collected during course of therapy and at follow up. Patient fecal samples were evaluated for C. difficile culture and microbiome changes. […] Favorable microbiome changes included overgrowth of Actinobacteria and Firmicutes phylum species while on therapy. These findings support that microbiome effects may be predictive of beneficial patient outcomes including low rates of recurrence.
Phase 2a of this trial was an open label cohort of 10 subjects from study centers in the United States. In this cohort, 10 patients with diarrhea caused by mild or moderate C. difficile diagnosed via toxin EIA+ were treated with ibezapolstat 450 mg orally, twice daily for 10 days. Stool was collected during the course of therapy and at follow up.
Stool DNA was extracted using a DNAeasy Power Soil Pro kit (Qiagen, catalog number 1288-100) in a QiaCube automated DNA extraction system as previously described. (Garey K W, et al. A randomized, double-blind, placebo-controlled, single and multiple ascending dose Phase 1 study to determine the safety, pharmacokinetics and food and faecal microbiome effects of ibezapolstat administered orally to healthy subjects. J Antimicrob Chemother 2020; 75 (12): 3635-3643). Shotgun metagenomic sequencing was carried out at the University of Houston Sequencing and Gene Editing Core (Houston, TX USA) using the Nextera DNA Flex Library Prep Kit for DNA library preparation and an Illumina NextSeq 500 platform for sequencing. CLC Genomic Workbench version 12 (Qiagen) was used for metagenomic assembly and creation of the abundance table.
16S rRNA sequencing was performed to characterize microbial taxonomy as described in Gonzales-Luna 2021. The V3-V4 region of the 16S rRNA gene was sequenced using an Illumina-based sequencing platform with a minimum of 15,000 reads per sample to assess the gut microbiome community structure. Quality filtered sequence reads with at least 97% similarity were clustered into Operational Taxonomic Units (OTUs) and representative sequences from each OTU were assigned a taxonomic identity at the species level by searching against the NCBI 16S rRNA sequence database (release date Sep. 1, 2018) using NCBI BLAST+ package v2.8.1 2018.
The DNA extracted from fecal samples previously used for 16S rRNA sequencing was shotgun metagenome sequenced using an Illumina-based platform for analysis of microbiome functional genes. The functional gene profiling of the shotgun metagenome was performed using HUMAnN2 v0.11.2 pipeline.35 In the preprocessing step, quality filtering of sequencing reads was performed and followed by screening and removal of contaminant host (human) reads. Trimmomatic v0.38 was used for the filtering and trimming of raw sequence data with the default cut-off settings. The reads were searched against a human genome database in paired-end mode using bowtie2 algorithm and were discarded if they were mapped to the database. To obtain the gene family profiles, these quality-controlled metagenome sequences were first searched against a nucleotide database (ChocoPhlAn) using bowtie2 and then against a protein database (UniRef90) using diamond. All the identified gene families were annotated using UniRef90 and pathways using MetaCyc identifiers.

[1] = 450 mg orally twice daily 10 days, day 3
[2] = 450 mg orally twice daily 10 days, day 5
[3] = 450 mg orally twice daily 10 days, day 8
[4] = 450 mg orally twice daily 10 days, day 10
[5] = 450 mg orally twice daily 10 days, day 12

## O=c1[nH]c(NCc2ccc(Cl)c(Cl)c2)nc2ncn(CCN3CCOCC3)c12 [Ibezapolstat, 2-((3,4-dichlorobenzyl)amino)-7-(2-morpholinoethyl)-1,7-dihydro-6H-purin-6-one]
Clostridioides difficile; Clostridioides difficile, N=6
  MIC50: 0.5 µg/mL (≈ 1.18 µM)
Clostridioides difficile; Clostridioides difficile, N=6, read-out: MIC Max
  MIC: 1 µg/mL (≈ 2.36 µM)
Clostridioides difficile; Clostridioides difficile, N=6, read-out: MIC Min
  MIC: 0.25 µg/mL (≈ 0.591 µM)
Clostridioides difficile; Clostridioides difficile, strains of C. difficile, highly active
  MIC: ≤ 2 µg/mL
Clostridioides difficile; strains of C. difficile, highly active
  MIC: < 2 µg/mL
Flavonifractor plautii
  MIC50: 25 µg/mL (≈ 59.1 µM)
Enterococcus avium; N=2
  MIC50: 12.5 µg/mL (≈ 29.5 µM)
Enterococcus avium; N=2, read-out: MIC Max
  MIC: 12.5 µg/mL (≈ 29.5 µM)
Enterococcus avium; N=2, read-out: MIC Min
  MIC: 12.5 µg/mL (≈ 29.5 µM)
Enterococcus mundtii
  MIC50: 12.5 µg/mL (≈ 29.5 µM)
Blautia sp.
  MIC50: 12.5 µg/mL (≈ 29.5 µM)
Clostridium subterminale
  MIC50: 1 µg/mL (≈ 2.36 µM)
Gut microbiome; [1]
  Proportion of isolated Firmicutes, Eubacteriales Family XIII: 2%
  Proportion of isolated Firmicutes, Peptostreptococcaceae: 1%
  Proportion of isolated Firmicutes, Other: 9%
  Proportion of isolated Firmicutes, Ruminococcaceae: 25%
  Proportion of isolated Firmicutes, Streptococcaceae: 3%
  Proportion of isolated Firmicutes, Erysipelotrichaceae: 24%
  Proportion of isolated Firmicutes, Lachnospiraceae: 37%
Gut microbiome; [2]
  Proportion of isolated Firmicutes, Eubacteriales Family XIII: 1%
  Proportion of isolated Firmicutes, Other: 10%
  Proportion of isolated Firmicutes, Ruminococcaceae: 38%
  Proportion of isolated Firmicutes, Streptococcaceae: 1%
  Proportion of isolated Firmicutes, Erysipelotrichaceae: 10%
  Proportion of isolated Firmicutes, Lachnospiraceae: 38%
Gut microbiome; [3]
  Proportion of isolated Firmicutes, Eubacteriales Family XIII: 3%
  Proportion of isolated Firmicutes, Peptostreptococcaceae: 5%
  Proportion of isolated Firmicutes, Other: 9%
  Proportion of isolated Firmicutes, Ruminococcaceae: 30%
  Proportion of isolated Firmicutes, Streptococcaceae: 4%
  Proportion of isolated Firmicutes, Erysipelotrichaceae: 9%
  Proportion of isolated Firmicutes, Lachnospiraceae: 33%
Gut microbiome; 450 mg orally twice daily 10 days, day 8, baseline 19%
  Proportion of isolated Firmicutes, Veillonellaceae: 5%
Gut microbiome; [4]
  Proportion of isolated Firmicutes, Eubacteriales Family XIII: 5%
  Proportion of isolated Firmicutes, Peptostreptococcaceae: 4%
  Proportion of isolated Firmicutes, Other: 8%
  Proportion of isolated Firmicutes, Ruminococcaceae: 26%
  Proportion of isolated Firmicutes, Streptococcaceae: 5%
  Proportion of isolated Firmicutes, Erysipelotrichaceae: 17%
  Proportion of isolated Firmicutes, Lachnospiraceae: 35%
Gut microbiome; [5]
  Proportion of isolated Firmicutes, Eubacteriales Family XIII: 4%
  Proportion of isolated Firmicutes, Peptostreptococcaceae: 6%
  Proportion of isolated Firmicutes, Other: 10%
  Proportion of isolated Firmicutes, Ruminococcaceae: 24%
  Proportion of isolated Firmicutes, Streptococcaceae: 2%
  Proportion of isolated Firmicutes, Erysipelotrichaceae: 6%
  Proportion of isolated Firmicutes, Lachnospiraceae: 44%
Gut microbiome; primarily Coriobacteriales
  Actinobacteria abundance after starting treatment: increased in abundance
